Legend:
Aurora-A = target: T1, Aurora-A (Mus musculus, UniProt P97477); experiment: Aurora-A kinase screening assay (33P-ATP FlashPlate); format: biochemical; settings: 10 μM ATP, 1 hr at 30° C;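 further: His-tagged mouse Aurora-A phosphorylating a biotinylated peptide captured on streptavidin plates, read as 33P uptake by scintillation counting, 1% DMSO, inhibition scaled between per-plate maximum and minimum signals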
T1 construct: polyhistidine (N)
T1 sequence (P97477 1-395): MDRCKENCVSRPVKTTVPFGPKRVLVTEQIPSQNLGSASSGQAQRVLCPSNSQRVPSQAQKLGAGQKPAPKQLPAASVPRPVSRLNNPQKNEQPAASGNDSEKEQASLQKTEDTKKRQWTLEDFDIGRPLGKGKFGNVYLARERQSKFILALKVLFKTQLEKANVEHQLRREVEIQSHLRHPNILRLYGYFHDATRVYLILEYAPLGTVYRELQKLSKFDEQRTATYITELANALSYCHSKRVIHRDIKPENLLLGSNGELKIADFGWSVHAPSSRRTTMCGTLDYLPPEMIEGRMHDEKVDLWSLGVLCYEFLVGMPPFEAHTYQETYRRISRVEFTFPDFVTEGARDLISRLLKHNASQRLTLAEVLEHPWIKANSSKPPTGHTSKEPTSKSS

VEGF-R2 = target: T2, VEGF-R2 (Rattus norvegicus, UniProt O08775); experiment: VEGF-R2 kinase screening assay (33P-ATP FlashPlate); format: biochemical; settings: rat VEGF-R2 kinase domain; 10 μM ATP; 1 hr at 30° C;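 further: Read-out is ³³P incorporation from ³³P-γ-ATP into biotinylated peptide substrate captured on streptavidin FlashPlate, counted by scintillation, 1% DMSO final, inhibition scaled between per-plate maximum and minimum signals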
T2 construct: polyhistidine (N)

c-Src kinase = target: T3, c-Src kinase (Homo sapiens, UniProt P12931); experiment: c-Src Kinase Assay; format: biochemical; settings: 5 μM ATP
T3 construct: purchased Upstate Biotechnology, Lake Placid, N.Y
Method: A mixture of a 10× kinase buffer (80 mM MOPS at pH 7.0, 2 mM EDTA and 100 mM Magnesium Chloride), ATP (5 μM final from a 10 mM stock), a Cdc2 peptide […] (100 μM final from a 2.5 mM stock), γ-^33P ATP (10 μCi/μL stock) and water (for a total of 20 μL/well) was added to each well of a Streptavidin Flashplate.
Test compound in 100% DMSO (0.5 μL) was added to the appropriate wells. Diluted c-Src kinase (human) (Accession Number SWISS-PROT P12931) (Upstate Biotechnology, Lake Placid, N.Y.) (diluted in a buffer consisting of 20 mM MOPS at pH 7.0, 1 mM EDTA, β-mercaptoethanol (0.1%), Brij-35 (0.01%), glycerol (5%), and 1 mg/mL bovine serum albumin) (2.5 μL) was added to the wells to initiate the reactions. The reaction plates were incubated at 30° C. for 40 min. The reaction was terminated by the addition of a 3% phosphoric acid solution (5 μL). The reaction product (10 μL) was spotted onto a P30 filtermat and washed for 5 minutes in phosphoric acid (75 mM). The wash sequence was repeated two more times, followed with one final wash in methanol. The plates were then dried, sealed and read on the TopCount scintillation counter after adding 30 μL scintillation fluid.
(§1) A maximum and minimum signal for the assay was determined on each plate. The percent inhibition of a test compound was calculated according to the formula: […]
For a series of test concentrations, the IC50 was derived by graphing percent inhibition against the log of the concentrations tested for a given compound with results shown in Table 2
(§2) For compounds with multiple values, each value represents a separate assay result.

HER2 = target: T4, HER2 (Homo sapiens, UniProt P04626); experiment: HER2 kinase screening assay (33P-ATP FlashPlate); format: biochemical; settings: GST-HIS6 HER-2 aa 679 to 1255; 10 μM ATP; 1 hr at 30° C;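 further: Biotin-poly(GT) 4:1 peptide captured on streptavidin FlashPlate, 33P transfer from γ-ATP read by scintillation counting, lower incorporation means inhibition, 1% DMSO final, 100 µL reaction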
T4 construct: GST (Glutathione-S-Transferase) (N); HIS6 (N); thrombin cleavage site (N); purchased Proqinase, Freiburg, Germany

[1] = system: HeLa cervical adenocarcinoma; experiment: Cell Proliferation Inhibition Assay (14C-thymidine incorporation), HeLa; format: cell-based; settings: Homo sapiens, HeLa, HeLa cells;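 further: test compound in DMSO added to cells seeded in scintillating 96-well plates, DMSO-only wells as control, uptake of methyl 14C-thymidine into new DNA counted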
CDK1 = target: T5, CDK1 (Homo sapiens, UniProt P06493); experiment: CDK-1 kinase screening assay (33P-ATP FlashPlate); format: biochemical; settings: human CDK1 with cyclin B; 10 μM ATP; 1 hr at 30° C
T5 construct: purchased New England Biolabs, Beverly, Mass; 6020; host or cells: insect cells

HCT-116 colon carcinoma = experiment: Cell Proliferation Inhibition Assay (14C-thymidine incorporation), HCT-116; format: cell-based; settings: Homo sapiens, HCT-116, HCT-116 cells;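 further: proliferation measured as methyl 14C-thymidine uptake into new DNA, counted in 96-well scintillating microplates, compared with DMSO-only control wells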
A375 malignant melanoma = experiment: Cell Proliferation Inhibition Assay (14C-thymidine incorporation), A375; format: cell-based; settings: Homo sapiens, A-375, A375 cells;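 further: proliferation measured by radiolabelled thymidine uptake into new DNA, counted in scintillating 96-well plates, compound-treated wells compared with DMSO-only control wells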
RET = target: T6, RET (Homo sapiens, UniProt P07949); experiment: RET kinase screening assay (33P-ATP FlashPlate); format: biochemical; settings: human RET kinase domain; 10 μM ATP; 1 hr at 30° C;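 further: biotinylated peptide substrate captured on streptavidin FlashPlate, 33P phosphate transfer read by scintillation counting, 1% DMSO, lower incorporation means inhibition, percent relative to per-plate maximum and minimum signals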
T6 construct: polyhistidine (N)
T6 sequence (P07949 658-1114 limits assumed): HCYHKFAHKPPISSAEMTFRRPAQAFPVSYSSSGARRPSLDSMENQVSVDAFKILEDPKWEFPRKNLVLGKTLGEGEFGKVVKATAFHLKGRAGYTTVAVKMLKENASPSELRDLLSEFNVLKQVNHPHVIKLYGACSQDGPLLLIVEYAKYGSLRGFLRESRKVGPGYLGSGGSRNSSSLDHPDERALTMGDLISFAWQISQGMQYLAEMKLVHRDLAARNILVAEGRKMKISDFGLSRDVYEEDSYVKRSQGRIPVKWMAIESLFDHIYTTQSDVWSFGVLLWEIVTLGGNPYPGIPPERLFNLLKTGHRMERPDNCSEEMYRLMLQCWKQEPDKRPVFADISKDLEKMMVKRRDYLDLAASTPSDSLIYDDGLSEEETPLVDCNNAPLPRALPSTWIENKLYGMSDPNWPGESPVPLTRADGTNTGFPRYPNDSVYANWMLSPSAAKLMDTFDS

Lyn kinase = target: T7, Lyn kinase (Homo sapiens, UniProt P07948); experiment: Lyn Kinase Assay; format: biochemical; settings: 5 μM ATP
T7 construct: purchased Upstate Biotechnology, Lake Placid, N.Y
Method: Test compound in 100% DMSO (0.5 μL) was added to the appropriate wells. Diluted Lyn kinase (human) (Accession Number EMBL M16038) (Upstate Biotechnology, Lake Placid, N.Y.) (diluted in a buffer consisting of 50 mM Tris at pH 7.5, 0.1 mM EGTA, Sodium Vanadate (0.1 mM), β-mercaptoethanol (0.1%) and 1 mg/mL bovine serum albumin) (2.5 μL) was added to the wells to initiate the reactions.
The reaction plates were incubated at 30° C. for 40 min. The reaction was terminated by the addition of a 3% phosphoric acid solution (5 μL). The reaction product (10 μL) was spotted onto a P30 filtermat and washed for 5 minutes in phosphoric acid (75 mM). The wash sequence was repeated two more times, followed with one final wash in methanol. The plates were then dried, sealed and read on the TopCount scintillation counter after adding 30 μL scintillation fluid.
as §1
For a series of test concentrations, the IC50 was derived by graphing percent inhibition against the log of the concentrations tested for a given compound with results shown in Table 3
as §2

T2 sequence (O08775 786-1343): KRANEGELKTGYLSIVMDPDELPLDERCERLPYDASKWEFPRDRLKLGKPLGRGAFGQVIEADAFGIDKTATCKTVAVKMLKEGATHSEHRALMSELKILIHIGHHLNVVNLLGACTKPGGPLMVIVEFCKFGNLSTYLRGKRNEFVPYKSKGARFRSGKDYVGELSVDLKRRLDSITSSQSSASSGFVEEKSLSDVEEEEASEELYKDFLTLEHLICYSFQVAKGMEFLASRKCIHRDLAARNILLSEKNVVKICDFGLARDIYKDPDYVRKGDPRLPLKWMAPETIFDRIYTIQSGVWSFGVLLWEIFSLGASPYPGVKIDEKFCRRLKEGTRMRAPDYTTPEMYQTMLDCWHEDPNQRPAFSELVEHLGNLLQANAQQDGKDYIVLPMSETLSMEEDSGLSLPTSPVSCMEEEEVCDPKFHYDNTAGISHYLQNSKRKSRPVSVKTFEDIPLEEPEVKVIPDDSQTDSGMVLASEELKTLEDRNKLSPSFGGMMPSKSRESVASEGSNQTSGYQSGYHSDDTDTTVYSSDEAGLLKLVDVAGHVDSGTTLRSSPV
T3 sequence (P12931 whole entry): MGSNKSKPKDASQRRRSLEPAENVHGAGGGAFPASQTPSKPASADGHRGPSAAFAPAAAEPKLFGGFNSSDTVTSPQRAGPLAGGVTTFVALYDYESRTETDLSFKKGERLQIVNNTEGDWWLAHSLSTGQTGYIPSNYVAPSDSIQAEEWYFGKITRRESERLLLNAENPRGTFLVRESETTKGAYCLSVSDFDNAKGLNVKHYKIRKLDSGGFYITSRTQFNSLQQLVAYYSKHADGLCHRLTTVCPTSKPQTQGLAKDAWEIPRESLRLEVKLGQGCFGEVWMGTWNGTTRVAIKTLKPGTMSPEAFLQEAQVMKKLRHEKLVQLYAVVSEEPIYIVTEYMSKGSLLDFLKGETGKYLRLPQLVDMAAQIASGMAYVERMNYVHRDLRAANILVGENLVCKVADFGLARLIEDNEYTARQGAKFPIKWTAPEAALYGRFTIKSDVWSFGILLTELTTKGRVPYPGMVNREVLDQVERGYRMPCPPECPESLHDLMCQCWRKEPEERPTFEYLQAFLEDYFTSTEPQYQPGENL
T4 sequence (P04626 679-1255): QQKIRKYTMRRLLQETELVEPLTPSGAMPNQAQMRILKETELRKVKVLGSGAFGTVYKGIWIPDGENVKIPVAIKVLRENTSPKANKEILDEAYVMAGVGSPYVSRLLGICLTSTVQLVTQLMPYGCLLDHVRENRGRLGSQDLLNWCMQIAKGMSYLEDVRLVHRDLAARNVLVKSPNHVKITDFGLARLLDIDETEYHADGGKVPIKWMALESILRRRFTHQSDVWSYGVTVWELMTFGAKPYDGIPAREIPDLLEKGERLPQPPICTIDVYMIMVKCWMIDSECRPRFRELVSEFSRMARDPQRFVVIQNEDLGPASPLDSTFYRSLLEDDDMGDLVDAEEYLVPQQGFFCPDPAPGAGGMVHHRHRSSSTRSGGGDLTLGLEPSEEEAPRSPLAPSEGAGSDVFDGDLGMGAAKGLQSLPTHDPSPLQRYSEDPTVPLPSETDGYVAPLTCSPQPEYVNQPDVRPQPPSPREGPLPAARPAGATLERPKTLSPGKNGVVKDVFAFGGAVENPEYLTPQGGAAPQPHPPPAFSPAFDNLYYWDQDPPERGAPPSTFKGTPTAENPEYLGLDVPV
T5 sequence (P06493 whole entry): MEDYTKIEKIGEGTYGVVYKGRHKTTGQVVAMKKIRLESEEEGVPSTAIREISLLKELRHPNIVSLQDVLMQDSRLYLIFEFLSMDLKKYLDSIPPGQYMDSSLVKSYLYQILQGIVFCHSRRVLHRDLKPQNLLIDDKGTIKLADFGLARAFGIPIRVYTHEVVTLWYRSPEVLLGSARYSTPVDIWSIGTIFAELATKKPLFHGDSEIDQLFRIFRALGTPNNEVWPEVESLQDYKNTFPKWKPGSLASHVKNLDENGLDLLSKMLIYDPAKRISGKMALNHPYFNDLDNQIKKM
T5 sequence (P14635 whole entry partner): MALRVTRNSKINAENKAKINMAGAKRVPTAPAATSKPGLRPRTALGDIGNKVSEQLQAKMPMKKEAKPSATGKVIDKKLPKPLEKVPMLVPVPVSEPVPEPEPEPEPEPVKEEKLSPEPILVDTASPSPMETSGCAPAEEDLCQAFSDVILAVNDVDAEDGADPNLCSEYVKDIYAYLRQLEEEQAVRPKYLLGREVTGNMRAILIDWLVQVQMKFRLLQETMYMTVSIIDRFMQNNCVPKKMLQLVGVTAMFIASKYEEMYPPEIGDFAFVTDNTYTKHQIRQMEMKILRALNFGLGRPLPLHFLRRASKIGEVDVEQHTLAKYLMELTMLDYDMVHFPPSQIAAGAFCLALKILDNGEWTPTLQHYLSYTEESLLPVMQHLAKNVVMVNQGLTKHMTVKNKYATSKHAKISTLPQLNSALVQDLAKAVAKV
T7 sequence (P07948 whole entry): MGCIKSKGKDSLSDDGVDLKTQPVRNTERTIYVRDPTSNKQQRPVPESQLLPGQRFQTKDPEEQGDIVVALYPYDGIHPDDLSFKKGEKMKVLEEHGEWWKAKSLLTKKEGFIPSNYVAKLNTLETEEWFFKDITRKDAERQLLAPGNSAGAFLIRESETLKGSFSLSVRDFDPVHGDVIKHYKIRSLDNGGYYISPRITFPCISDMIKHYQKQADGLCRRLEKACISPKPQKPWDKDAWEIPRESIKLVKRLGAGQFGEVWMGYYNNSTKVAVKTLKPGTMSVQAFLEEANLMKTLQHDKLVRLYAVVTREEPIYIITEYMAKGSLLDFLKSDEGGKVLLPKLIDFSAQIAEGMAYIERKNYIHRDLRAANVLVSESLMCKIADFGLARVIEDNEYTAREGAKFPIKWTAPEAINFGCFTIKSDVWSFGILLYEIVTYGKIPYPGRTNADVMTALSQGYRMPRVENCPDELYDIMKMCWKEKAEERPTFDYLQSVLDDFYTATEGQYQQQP

SMILES	IC50 (Aurora-A) [µM]	IC50 (VEGF-R2) [nM]	IC50 (c-Src kinase) [nM]	IC50 (HER2) [µM]	IC50 [1] [nM]	IC50 (CDK1) [nM]	IC50 (HCT-116 colon carcinoma) [nM]	IC50 (A375 malignant melanoma) [nM]	IC50 (RET) [µM]	IC50 (Lyn kinase) [µM]
COCc1cccc2[nH]c(-c3n[nH]c4ncc(-c5cc[nH]c5)cc34)nc12 [Cpd 40, 3-(4-methoxymethyl-1H-benzoimidazol-2-yl)-5-(1H-pyrrol-3-yl)-1H-pyrazolo[3,4-b]pyridine]	~1	462	327	> 100	1220	1190	56.5	73.7	–	–
COCc1cccc2[nH]c(-c3n[nH]c4ncc(-c5cncc(C=O)c5)cc34)nc12 [Cpd 41, 5-[3-(4-methoxymethyl-1H-benzoimidazol-2-yl)-1H-pyrazolo[3,4-b]pyridin-5-yl]-pyridine-3-carbaldehyde]	0.248	> 1000	92.5	~100	1220	231	161	265	> 100	–
CCNCc1cncc(-c2cnc3[nH]nc(-c4nc5c(COC)cccc5[nH]4)c3c2)c1 [Cpd 42, ethyl-{5-[3-(4-methoxymethyl-1H-benzoimidazol-2-yl)-1H-pyrazolo[3,4-b]pyridin-5-yl]-pyridin-3-ylmethyl}-amine]	4.46	~1000	358	> 10	298	9.8	280	239	7.63	–
COCc1cccc2[nH]c(-c3n[nH]c4ncc(-c5cncc(CN)c5)cc34)nc12 [Cpd 73, C-{5-[3-(4-methoxymethyl-1H-benzoimidazol-2-yl)-1H-pyrazolo[3,4-b]pyridin-5-yl]-pyridin-3-yl}-methylamine]	4.75	> 10000	823	> 10	2550	42.7	412	678	> 10	–
COCc1cccc2[nH]c(-c3n[nH]c4ncc(-c5cncc(CNCCN6CCOCC6)c5)cc34)nc12 [Cpd 74, {5-[3-(4-methoxymethyl-1H-benzoimidazol-2-yl)-1H-pyrazolo[3,4-b]pyridin-5-yl]-pyridin-3-ylmethyl}-(2-morpholin-4-yl-ethyl)-amine]	6.82	284	954	~100	4780	551	386	459	~100	–
COCCNCc1cncc(-c2cnc3[nH]nc(-c4nc5c(COC)cccc5[nH]4)c3c2)c1 [Cpd 75, (2-methoxy-ethyl)-{5-[3-(4-methoxymethyl-1H-benzoimidazol-2-yl)-1H-pyrazolo[3,4-b]pyridin-5-yl]-pyridin-3-ylmethyl}-amine]	4.5	1640	378	> 10	594	63.6	163	205	> 10	–
COCc1cccc2[nH]c(-c3n[nH]c4ncc(-c5cncc(CNCCN(C)C)c5)cc34)nc12 [Cpd 76, N′-{5-[3-(4-methoxymethyl-1H-benzoimidazol-2-yl)-1H-pyrazolo[3,4-b]pyridin-5-yl]-pyridin-3-ylmethyl}-N,N-dimethyl-ethane-1,2-diamine]	6.6	1370	1010	> 100	10100	595	255	178	> 100	–
COCc1cccc2[nH]c(-c3n[nH]c4ncc(-c5cncc(CNCCO)c5)cc34)nc12 [Cpd 77, 2-({5-[3-(4-methoxymethyl-1H-benzoimidazol-2-yl)-1H-pyrazolo[3,4-b]pyridin-5-yl]-pyridin-3-ylmethyl}-amino)-ethanol]	3.18	349	183	> 10	1620	13	643	1610	> 10	–

Continued, values first:

IC50 (Aurora-A) [µM]	IC50 (VEGF-R2) [nM]	IC50 (c-Src kinase) [nM]	IC50 (HER2) [µM]	IC50 [1] [nM]	IC50 (CDK1) [nM]	IC50 (HCT-116 colon carcinoma) [nM]	IC50 (A375 malignant melanoma) [nM]	IC50 (RET) [µM]	IC50 (Lyn kinase) [µM]	SMILES
–	–	97.9	–	698	6.57	348	467	–	> 100	Fc1ccc2nc(-c3n[nH]c4ncc(-c5cccnc5)cc34)[nH]c2c1 [Cpd 92, 3-(6-fluoro-1H-benzoimidazol-2-yl)-5-pyridin-3-yl-1H-pyrazolo[3,4-b]pyridine]
> 10	–	756	> 100	799	6	519	645	> 100	–	FC(F)(F)Oc1ccc2[nH]c(-c3n[nH]c4ncc(-c5cccnc5)cc34)nc2c1 [Cpd 94, 5-pyridin-3-yl-3-(5-trifluoromethoxy-1H-benzoimidazol-2-yl)-1H-pyrazolo[3,4-b]pyridine]
0.229	–	74	> 100	1930	3.4	1410	2650	> 1	–	OCCOc1ccc2[nH]c(-c3n[nH]c4ncc(-c5cccnc5)cc34)nc2c1 [Cpd 95, 2-[2-(5-pyridin-3-yl-1H-pyrazolo[3,4-b]pyridine-3-yl)-1H-benzoimidazol-5-yloxyl]-ethanol]
0.359	269	11.7	10.7	47.2	3.2	106	120	~1	–	COc1ccc2[nH]c(-c3n[nH]c4ncc(-c5cncc(CNC(C)C)c5)cc34)nc2c1 [Cpd 102, isopropyl-{5-[3-(5-methoxy-1H-benzoimidazol-2-yl)-1H-pyrazolo[3,4-b]pyridin-5-yl]-pyridin-3-ylmethyl}-amine]

Reference: patent US7541367B2, “3-benzoimidazolyl-pyrazolopyridines useful in treating kinase disorders” (Janssen Pharmaceutica, N.V., priority 2005, dated 2009)
